# Results from publication PMC9855133, “Ligand Binding Properties of Odorant-Binding Protein OBP5 from Mus musculus” (Biology, 2022).
# T1: mOBP5 (Mus musculus, UniProt Q9D3H2)
# T1 construct: composed of an N-terminal His6-tag, followed by mOBP5 (Ala17-Glu163); made in house; host or cells: E. coli M15 [pREP4]
# T1 sequence (Q9D3H2 17-163): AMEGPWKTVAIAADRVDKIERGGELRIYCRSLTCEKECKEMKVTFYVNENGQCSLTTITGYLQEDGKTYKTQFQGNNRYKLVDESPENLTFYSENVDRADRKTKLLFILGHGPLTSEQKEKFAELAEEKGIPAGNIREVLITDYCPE
# B1: Mus musculus odorant-binding protein OBP5 (mOBP5), recombinant His6-tagged (natural protein, UniProt Q9D3H2 17-163, looked up)
# chain: T1 sequence (Q9D3H2 17-163)
# notes: Expressed from pQE31 (BamHI/HindIII); also called mOBP1a; source: E. coli M15 [pREP4], purified (HisTrap Ni2+-chelating column, dialysis); not shown: His6, N-terminal, kept
# How the values were obtained:
# [1] = molecular target: T1, mOBP5; test: Competitive fluorescence binding assay (displacement of NPN from mOBP5); details: for IC50 / Kd: 2 μM mOBP5, 10 μM NPN; for IC50: 20 °C, for very weak ligands an arbitrary value of 200 μM was assigned, read-out: IC50 (µM) Fluo: concentration of competitor ligand causing a decrease of NPN fluorescence of half-maximal intensity; for Kd: calculated as Kd = [IC50]/(1 + [L]/Kd NPN), average of three experiments, read-out: Kd (µM) Fluo: dissociation constant determined by fluorescence; for fluorescence intensity of the mOBP5-NPN complex in the presence of odorant: competitive curves, Figure 3C
# Method: (§1) Competitive ligand binding experiments were performed using N-phenyl-1-naphthylamine (NPN) as a fluorescent probe as previously described. All measurements were conducted at 20 °C using a Cary Eclipse spectrofluorimeter (Agilent Technologies, Santa Clara, CA, United States) equipped with a Peltier temperature-control unit with a 1 cm light path, quartz cuvette, and 5 nm slits for both excitation and emission. […] The excitation wavelength of NPN was 337 nm, and the fluorescence emission was recorded between 350 and 600 nm. The value of the dissociation constant (Kd) NPN was calculated using SigmaPlot 12.5 software (Systat Software, Inc., San Jose, CA, USA), as previously described.
# Competitive binding assays were carried out with 2 μM mOBP5 incubated with 10 μM NPN, as previously described. After the addition of the competitor compound and the stabilization of the signal (3–4 min), the fluorescence spectrum was recorded. The IC50 value is the concentration of odorant, which causes a fluorescence decrease in half-maximal intensity. The IC50 values were calculated using SigmaPlot software. Dissociation constants (Kd) for odorant competitors were calculated as Kd = [IC50]/(1 + [L]/Kd NPN), with [L] being the free fluorophore concentration and Kd being the OBP-fluorophore complex dissociation constant. The reported Kd values are the average of three measurements performed in three independent experiments.
# [2] = molecular target: T1, mOBP5; test: Isothermal titration microcalorimetry (ITC); assay type: binding; details: 25 °C, 25 μM mOBP5, 250 μM odorant, phosphate buffer pH 7.5; for Ka (ITC): association constant determined by ITC: in M-1 (unit assumed); for Kd: read-out: Kd (µM) ITC: dissociation constant determined by ITC (1/Ka)
# Method: Isothermal titration microcalorimetry (ITC) experiments were carried out at 25 °C with a VP-ITC microcalorimeter (Malvern Panalytical, Palaiseau, France) as previously described. Before initiating the titration run, mOBP5 solutions (25 μM in 50 mM phosphate buffer, pH 7.5) were thoroughly degassed under vacuum. Ligand solutions (250 μM in 50 mM phosphate buffer, pH 7.5) were injected into one 3 µL aliquot, then 26 successive 10 μL aliquots. The duration of each injection was 20 s with a 210 s recovery time between injections. Heats of dilution determined in the absence of mOBP5 were subtracted from the titration data prior to curve fitting. Thermodynamic parameters were obtained by fitting the values to a single site binding model through nonlinear regression using Microcal Origin® software.
# [3] = molecular target: T1, mOBP5; test: Fluorescence titration of mOBP5 with the probe NPN; assay type: binding; details: 2 µM mOBP5, 50 mM sodium phosphate pH 7.5, 20 °C, excitation 337 nm; read-out: dissociation constant (Kd) of NPN
# Method: as §1
# [4] = molecular target: the molecule itself; test: SEC; calibrated Superdex 75 10/300 GL, room temperature, 100 mM potassium phosphate, 150 mM NaCl, pH 7.5, 1 mL/min; purified mOBP5 at 0.5 mg/mL
Molecule,IC50 [1] [µM],Kd [1] [µM],fluorescence intensity of the mOBP5-NPN complex in the presence of odorant [1],N ITC: binding stoichiometry per monomer determined by ITC [2],Ka (ITC): association constant determined by ITC [2],Kd [2] [µM],Kd [3] [nM],stoichiometry N [4]
CCCCCCCO [1-heptanol],2.4,0.59,–,–,–,–,–,–
CCCCCCO [1-hexanol],40,–,–,–,–,–,–,–
CC1=CCC2CC1C2(C)C (stereo not drawn) [α-pinene],0.9,0.24,drastically reduced,–,–,–,–,–
CCCCCCCC=O [octanal],1.3,0.34,drastically reduced,–,–,–,–,–
CC(C)[C@@H]1CC[C@@H](C)CC1=O [menthone],0.8,0.23,drastically reduced,0.58,1.8E+07,0.055,–,–
"c1ccc(Nc2cccc3ccccc23)cc1 [NPN, N-phenyl-1-naphthylamine]",–,–,–,–,–,–,3330 ± 170,–
COc1nccnc1CC(C)C [3-iso-butyl-2-methoxy-pyrazine],7.2,1.3,–,–,–,–,–,–
CC12CCC(CC1)C(C)(C)O2 [cineole],40,–,–,–,–,–,–,–
"C=C(C)C1CC=C(C)C(=O)C1 (single isomer, unassigned; (-)) [(-)-carvone]",1.1,0.28,drastically reduced,–,–,–,–,–
CC(=O)/C=C/C1=C(C)CCCC1(C)C [β-ionone],3,0.71,–,–,–,–,–,–
CCCCCCCCC(C)=O [2-decanone],1.2,0.31,drastically reduced,–,–,–,–,–
CC12CCC(CC1=O)C2(C)C (stereo not drawn) [camphor],10.4,1.6,–,–,–,–,–,–
CC(C)=CCCC(C)=CC=O (mixture of isomers) [citral],2.5,0.61,–,0.65,1.3E+07,0.076,–,–
Cc1ccc(C(C)C)c(O)c1 [thymol],40,–,–,–,–,–,–,–
CC(=O)OCCC(C)C [isoamyl acetate],2.5,0.6,–,0.87,8.6E+06,0.116,–,–
C=C(C)[C@H]1CC=C(C)C(=O)C1 [(+)-carvone],1,0.28,drastically reduced,0.47,8.7E+06,0.115,–,–
CCCCCCCCO [1-octanol],1.1,0.29,drastically reduced,0.71,3.6E+07,0.028,–,–
CC(C)=CCC/C(C)=C/CO [geraniol],0.7,0.19,drastically reduced,0.71,2.5E+07,0.04,–,–
CC(C=O)Cc1ccc(C(C)(C)C)cc1 (stereo not drawn) [lilialdehyde],1.4,0.38,drastically reduced,–,–,–,–,–
CC1CCC(C(C)C)C(O)C1 (stereo not drawn) [menthol],1.5,0.38,drastically reduced,–,–,–,–,–
C=CC(C)(O)CCC=C(C)C (stereo not drawn) [linalool],1.1,0.3,drastically reduced,–,–,–,–,–
CCCCCCC1CCC(=O)O1 (stereo not drawn) [γ-decalactone],2.4,0.58,–,–,–,–,–,–
CCCC(=O)OCC [ethyl butyrate],40,–,–,–,–,–,–,–
COc1ccc(C=O)cc1 [4-methoxy-benzaldehyde],40,–,–,–,–,–,–,–
B1,–,–,–,–,–,–,–,2
